The numbers were not newly measured in US9169190B2, “Methods for making retinoids and uses thereof” (The UAB Research Foundation, priority 2004, dated 2015), which cites them from elsewhere.

Data set [1] concerns MNU-induced mammary cancers. Conditions: added to the diet of rats.
The subject of data set [2] is mammary cancers. Conditions: compared with 9cRA.
For data set [3], the system named is juvenile myelomonocytic leukemia (JMML). Conditions: children with JMML.
In data set [4] the test system is acute promyelocytic leukemia (APL). Conditions: patients with APL.

Turning to `CC1=C(/C=C/C(C)=C\C=C\C(C)=C\C(=O)O)C(C)(C)CCC1` [9cRA], the “reduction of the number of MNU-induced mammary cancers” value in data set [1] is given as 92%. Turning to `CC(=C/C=C/C(C)=C/C(=O)O)/C=C1\CCCc2ccccc21` [9cUAB30], in data set [2], the “chemopreventive efficacy of mammary cancers relative to 9cRA” value was “comparable” and the “toxicity relative to 9cRA” value is “less toxic”. In the case of `CC1=C(/C=C/C(C)=C/C=C/C(C)=C\C(=O)O)C(C)(C)CCC1` [(13Z)-RA], the “children in whom excessive myeloproliferation is effectively controlled” value in data set [3] is on record as “up to 50%”. Regarding `CC1=C(/C=C/C(C)=C/C=C/C(C)=C/C(=O)O)C(C)(C)CCC1` [(all-E)-RA, All-trans-retinoic acid], the complete remission rate in data set [4] was 90%.
